Experimental data published in PMC11110727, “Exploiting thiol-functionalized benzosiloxaboroles for achieving diverse substitution patterns – synthesis, characterization and biological evaluation of promising antibacterial agents” (RSC Medicinal Chemistry, 2024).
pIC50: −log10 of the molar value.

Target: T1, S. aureus MRSA LeuRS (Staphylococcus aureus, UniProt P67513)
T1 construct: The LeuRS gene from MRSA (PW-71) was amplified by PCR; made in house; host or cells: E. coli BL21(DE3)pLys
Assay: In vitro aminoacylation (enzyme inhibition) assay
Type: biochemical
Method: We have undertaken research devoted to determining the most probable mechanism of antibacterial action. […] Considering structural similarity to benzoxaboroles we assumed that benzosiloxaboroles are active through this mechanism. Our working hypothesis was supported by the fact that benzosiloxaboroles are rather bacteriostatic than bactericidal,[26,27] which is consistent with the specificity of the OBORT mechanism. The enzyme inhibition assay was performed for compound 20 as it features high activity against S. aureus MRSA strains and the respective favorable SI = 19.5 (Table 5). […] We obtained S. aureus MRSA LeuRS in the E. coli expression system. From 400 mL culture, approximately 20 mg of 6× His tagged LeuRS (with a molecular mass of 92.3 kDa) was purified to more than 90% homogeneity, which was confirmed by sodium dodecylsulfate-polyacrylamide gel electrophoresis (SDS-PAGE; Fig. S2, ESI ^†). Next, we used an in vitro aminoacylation assay to investigate the ability of 20 to inhibit S. aureus MRSA LeuRS activity consistent with affecting the transfer of the ^14C-radiolabeled leucine to a total tRNA. […] (residual activity 30.8% at 25 μM).
The LeuRS gene from MRSA (PW-71) was amplified by PCR using the following primers: 5′-[…]-3′ and 5′-[…]-3′. The amplified leuRS was digested with BamHI and NotI and ligated into pETDuet-1 vector (Novagen) which carries an N-terminal His tag. After sequencing, the pETDuet1-leuRS plasmid was transformed into E. coli BL21(DE3)pLys cells, which were then grown overnight in 20 mL of Luria–Bertani (LB) medium containing 100 μg mL^−1 ampicillin and 30 μg mL^−1 chloramphenicol. Then the overnight culture was inoculated into 400 mL of Super Broth medium containing ampicillin and chloramphenicol at the same concentration, and the cells were grown until the OD600 reached 0.6. […] The protein concentration in the final solution was 2.86 mg mL^−1 (determined by the Bradford method and bovine serum albumin as a standard).[78] […]

T1 sequence (P67513 whole entry): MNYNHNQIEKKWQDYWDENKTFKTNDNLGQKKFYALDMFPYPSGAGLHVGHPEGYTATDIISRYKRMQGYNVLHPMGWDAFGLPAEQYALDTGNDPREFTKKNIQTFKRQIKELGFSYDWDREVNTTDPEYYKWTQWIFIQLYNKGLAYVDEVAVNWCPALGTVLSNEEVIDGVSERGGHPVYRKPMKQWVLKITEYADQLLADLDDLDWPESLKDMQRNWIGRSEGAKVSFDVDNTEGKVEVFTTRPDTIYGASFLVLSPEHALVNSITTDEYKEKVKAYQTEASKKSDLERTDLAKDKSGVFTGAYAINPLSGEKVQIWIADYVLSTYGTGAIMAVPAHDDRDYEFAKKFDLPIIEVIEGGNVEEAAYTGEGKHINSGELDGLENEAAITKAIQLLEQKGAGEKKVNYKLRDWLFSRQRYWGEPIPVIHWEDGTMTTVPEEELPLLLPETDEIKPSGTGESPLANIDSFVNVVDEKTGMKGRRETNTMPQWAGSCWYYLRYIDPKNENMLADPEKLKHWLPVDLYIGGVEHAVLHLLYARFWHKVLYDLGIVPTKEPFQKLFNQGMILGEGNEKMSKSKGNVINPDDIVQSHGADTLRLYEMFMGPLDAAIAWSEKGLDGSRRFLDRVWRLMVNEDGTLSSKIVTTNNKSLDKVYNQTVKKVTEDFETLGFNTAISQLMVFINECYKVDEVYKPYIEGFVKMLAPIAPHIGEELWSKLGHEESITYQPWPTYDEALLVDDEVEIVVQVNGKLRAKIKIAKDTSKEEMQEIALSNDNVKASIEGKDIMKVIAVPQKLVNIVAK

## C[Si]1(C)OB(O)c2cc(F)c(SCCS(=O)(=O)c3ccccc3)c(F)c21 [Compound 20, 5,7-Difluoro-1,1-dimethyl-6-((2-(phenylsulfonyl)ethyl)thio)benzo[c][1,2,5]oxasilaborol-3(1H)-ol]
  pIC50: < 3.70
read-out: residual activity of S. aureus MRSA LeuRS
  remaining activity at 25 µM: 92.9%
